From patent publication US4085224A, “Method of increasing feed utilization” (Eli Lilly and Company, priority 1976, dated 1978)

Key:
[1] = test system: Staphylococcus aureus (H-Heatley) NRRL B-314; experiment: turbidometric assay on semiautomated system (Autoturb), relative gram-positive activity; type: cell-based; settings: relative to A-28086 factor A (standard); nutrient broth pH 7, four hours at 37° C.
Description: The C2 -C6 -acyl ester derivatives of A-28086 factor A also have antibacterial and antifungal activity. In one aspect, these derivatives have increased gram-positive activity. The relative gram-positive activities of certain of these derivatives were compared with the activity of factor A. The compounds were tested by turbidometric assay on a semiautomated system (Autoturb® microbiological assay system, Elanco) described by N. R. Kuzel and F. W. Kavanaugh in J. Pharmaceut. Sci. 60 (5), 764 and 767 (1971). In testing the A-28086 antibiotics, the following test parameters were used: Staphylococcus aureus (H-Heatley) NRRL B-314 in a nutrient broth medium (pH 7), incubated for four hours at 37° C. Test samples and the standard were dissolved in methanol-water (10:90). The standard, A-28086 factor A, was presented to the Autoturb® carrousel at concentrations of 2, 3, 4, and 5 mcg/ml. Test compounds were diluted to contain approximately 3 or 4 mcg of activity per ml, as presented to the carrousel. The relative activities of test compounds, as compared to that of the standard, are given below: […]

rumen fluid = experiment: in vitro rumen fluid volatile fatty acid production; set-up: species or system steer; settings: 1 ppm in rumen fluid, 16 hours at 38° C.
Description: As discussed hereinabove, efficiency of carbohydrate utilization in ruminants is increased by treatments which stimulate the amimal's rumen flora to produce propionate compounds rather than acetate or butyrate compounds. The efficiency of feed use can be monitored by observing the production and concentration of propionate compounds in the rumen, using the following methods:
Remen fluid is obtained from a steer with a surgically-installed fistula opening into the rumen. The steer is maintained on a high-grain ration. A sample of rumen fluid is strained through four layers of cheesecloth, and the filtrate is collected. The particulate matter retained by the cheesecloth is resuspended in enough physiological buffer to return it to the original volume of the rumen fluid, and this suspension is strained again. The buffer used has the following composition:
The two filtrates are combined and allowed to stand until particulate matter separates to the top. The clear layer is separated, diluted with the same buffer (1:1) and then adjusted to between pH 6.8 to 7.0.
The diluted rumen fluid (10 ml) is placed in a 25-ml flask with 40 mg of the above-described feed, an additional 1 mg of soybean protein, and the compound to be tested. Four replicate flasks are used per treatment. Two sets of four control flasks each are also employed. A zero-time control and an incubated 16-hour control are used. All test flasks are incubated for 16 hours at 38° C. […] The samples are allowed to settle, and the supernatants are analyzed by gas chromatography for propionate, acetate, and butyrate compounds.

SMILES	Relative G+ Activity [1]	Ratio of Treated to Control, Molar % acetate (rumen fluid)	Ratio of Treated to Control, Molar % butyrate (rumen fluid)	Ratio of Treated to Control, Molar % propionate (rumen fluid)	Ratio of Treated to Control, Total VFA mM/l (rumen fluid)
CCCCC(=O)OC1C=CC2(OC(C(CC)C(=O)C(C)C(O)C(C)C3OC(C(CC)C(=O)O)C(C)CC3C)C(C)CC2C)OC12CCC(C)(C1CCC(O)(CC)C(C)O1)O2 (stereo not shown)	14	0.92	0.79	1.55	1.18
CCCCCC(=O)OC1C=CC2(OC(C(CC)C(=O)C(C)C(O)C(C)C3OC(C(CC)C(=O)O)C(C)CC3C)C(C)CC2C)OC12CCC(C)(C1CCC(O)(CC)C(C)O1)O2 (stereo not shown)	20	0.86	0.97	1.57	0.99
CCC(=O)OC1C=CC2(OC(C(CC)C(=O)C(C)C(O)C(C)C3OC(C(CC)C(=O)O)C(C)CC3C)C(C)CC2C)OC12CCC(C)(C1CCC(O)(CC)C(C)O1)O2 (stereo not shown)	7	0.90	0.68	1.73	1.25
CCC(C(=O)O)C1OC(C(C)C(O)C(C)C(=O)C(CC)C2OC3(C=CC(OC(C)=O)C4(CCC(C)(C5CCC(O)(CC)C(C)O5)O4)O3)C(C)CC2C)C(C)CC1C (stereo not shown) [A-28086 factor A acetyl ester derivative]	2.5	0.79	0.76	2.04	1.04
CCCC(=O)OC1C=CC2(OC(C(CC)C(=O)C(C)C(O)C(C)C3OC(C(CC)C(=O)O)C(C)CC3C)C(C)CC2C)OC12CCC(C)(C1CCC(O)(CC)C(C)O1)O2 (stereo not shown)	8	0.91	0.81	1.56	1.19
